# Experimental data reported in patent US20100022483A1, “Substituted Tetracycline Compounds” (Paratek Pharmaceuticals, Inc., priority 2008, published 2010).
# Like-named read-outs stand apart in the source and are kept apart here.
# Key:
# [1] = tested on: CHO-K1 cells; experiment: in vitro; type: cell-based; conditions: Chinese hamster, 24 h
# [2] = tested on: gram positive bacteria; experiment: In vitro anti-bacterial activity assay (broth dilution MIC), gram positive bacteria; type: cell-based, S. aureus; conditions: for MIC: 18 h
# Outline: (§1)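 Broth dilution MIC following CLSI M7-A2: compounds serially diluted, log-phase test strains added to final ~5×10^5 CFU/ml, incubated ~18 hours at 35° C in ambient air. Plates read on microplate reader or visually; MIC is lowest concentration inhibiting growth.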
# [3] = tested on: gram negative bacteria; experiment: In vitro anti-bacterial activity assay (broth dilution MIC), gram negative bacteria; type: cell-based, E. coli
# Outline: as §1
# [4] = tested on: 3T3 fibroblast cells; experiment: In vitro phototoxicity assay (neutral red; UV light-treated vs dark control plates); type: cell-based; conditions: for Photo Toxicity UV Tox50: UV light 50 minutes; for Photo Toxicity Dark Tox50: dark control plate
# Outline: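 Neutral red viability readout (A535 after EtOH/acetic acid extraction) compares paired plates: one exposed 50 min to UV at 1.6–1.8 mW/cm^2, one held in darkness, both dosed with compound in HBSS and recovered overnight. 3T3 fibroblast cells used; phototoxicity taken as the difference.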
# [5] = in vitro; type: cell-based; conditions: Chinese hamster, Cytotox. CHO-K1
# [6] = Mammalian cytotoxicity assay (resazurin), COS-1 cells; type: cell-based; conditions: African green monkey, read-out: Cytotox. COS-1
# Outline: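 Resazurin read-out (0.042 mg/ml, 2 h at 37° C. then 30 min dark, room temperature; fluorescence 535/590 nm) follows 24-hour compound exposure of overnight-seeded cells, serially diluted. IC50 is the concentration giving 50% growth inhibition.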
# [7] = Staphylococcus aureus, S. aureus MRSA5, read-out: Median MIC's G+ S. aureus MRSA5
# [8] = Staphylococcus aureus, S. aureus RN450, read-out: Median MIC's G+ S. aureus RN450
# [9] = Streptococcus pneumoniae, S. pneumoniae 157E-Strep, read-out: Median MIC's G+ S. pneumoniae 157E-Strep
# [10] = Escherichia coli, 18 h, E. coli D1 209, read-out: Median MIC's G− E. coli D1 209
# [11] = Escherichia coli, 18 h, E. coli MG 1655, read-out: Median MIC's G− E. coli MG 1655
# [12] = Escherichia coli, ATCC25922, 18 h, E. coli ATCC 25922, read-out: Median MIC's G− E. coli ATCC 25922
# [13] = Pseudomonas aeruginosa, 18 h, P. aeruginosa K201 PAO6609, read-out: Median MIC's G− P. aeruginosa K201 PAO6609
smiles,measurement,setting,value
CN(C)CCCNC(=O)c1cccc(-c2ccc(O)c3c2C[C@H]2C[C@H]4[C@H](N(C)C)C(O)=C(C(N)=O)C(=O)[C@@]4(O)C(O)=C2C3=O)c1 [J],IC50,[1],> 40.3 µM
same,MIC,[2]; [7],64 µg/mL
same,MIC,[2]; [8],1 µg/mL
same,MIC,[2]; [9],1 µg/mL
same,MIC,[3]; [10],64 µg/mL
same,MIC,[3]; [11],32 µg/mL
same,MIC,[3]; [12],32 µg/mL
same,MIC,[3]; [13],64 µg/mL
same,Photo Toxicity UV Tox50,[4],>130.13 µM
same,Photo Toxicity Dark Tox50,[4],>130.13 µM
CN(C)CCCNC(=O)c1cccc(-c2ccc(O)c3c2C[C@H]2C[C@H]4[C@H](N(C)C)C(O)=C(C(N)=O)C(=O)[C@@]4(O)C(O)=C2C3=O)c1 [Q],IC50,[1],> 137 µM
same,Median MIC's G+ S. aureus MRSA5,[2]; S. aureus MRSA5,64 µg/mL
same,Median MIC's G+ S. aureus RN450,[2]; S. aureus RN450,2 µg/mL
same,Median MIC's G+ S. pneumoniae 157E-Strep,[2]; S. pneumoniae 157E-Strep,1 µg/mL
same,Median MIC's G− E. coli ATCC 25922,[3]; E. coli ATCC 25922,64 µg/mL
same,Median MIC's G− E. coli D1 209,[3]; E. coli D1 209,64 µg/mL
same,Median MIC's G− E. coli MG 1655,[3]; E. coli MG 1655,64 µg/mL
same,Median MIC's G− P. aeruginosa K201 PAO6609,[3]; P. aeruginosa K201 PAO6609,64 µg/mL
same,Photo Toxicity UV Tox50,[4],>137.36 µM
same,Photo Toxicity Dark Tox50,[4],>137.36 µM
CC(=O)NCCNC(=O)c1cccc(-c2ccc(O)c3c2C[C@H]2C[C@H]4[C@H](N(C)C)C(O)=C(C(N)=O)C(=O)[C@@]4(O)C(O)=C2C3=O)c1 [S],IC50 at 24 h,[5],> 13 µM
same,MIC,[2]; [7],32 µg/mL
same,MIC,[2]; [8],2 µg/mL
same,MIC,[2]; [9],2 µg/mL
same,IC50 at 24 h,[6],> 13 µM
same,MIC,[3]; [10],64 µg/mL
same,MIC,[3]; [11],64 µg/mL
same,MIC,[3]; [12],64 µg/mL
same,MIC,[3]; [13],64 µg/mL
same,Photo Toxicity UV Tox50,[4],>129.75 µM
same,Photo Toxicity Dark Tox50,[4],>129.75 µM
CC(C)N(CCNC(=O)c1cccc(-c2ccc(O)c3c2C[C@H]2C[C@H]4[C@H](N(C)C)C(O)=C(C(N)=O)C(=O)[C@@]4(O)C(O)=C2C3=O)c1)C(C)C [T],IC50 at 24 h,[5],36.2 µM
same,MIC,[2]; [7],4 µg/mL
same,MIC,[2]; [8],0.13 µg/mL
same,MIC,[2]; [9],0.06 µg/mL
same,IC50 at 24 h,[6],> 41.4 µM
same,MIC,[3]; [10],8 µg/mL
same,MIC,[3]; [11],16 µg/mL
same,MIC,[3]; [12],4 µg/mL
same,MIC,[3]; [13],64 µg/mL
same,Photo Toxicity UV Tox50,[4],>133.57 µM
same,Photo Toxicity Dark Tox50,[4],>133.57 µM
CN(C)[C@@H]1C(O)=C(C(N)=O)C(=O)[C@@]2(O)C(O)=C3C(=O)c4c(O)ccc(-c5cccc(C(=O)NCCN6CCCCC6)c5)c4C[C@H]3C[C@@H]12 [U],IC50 at 24 h,[5],> 41 µM
same,MIC,[2]; [7],8 µg/mL
same,MIC,[2]; [8],0.25 µg/mL
same,MIC,[2]; [9],0.06 µg/mL
same,IC50 at 24 h,[6],> 41 µM
same,MIC,[3]; [10],8 µg/mL
same,MIC,[3]; [11],4 µg/mL
same,MIC,[3]; [12],4 µg/mL
same,MIC,[3]; [13],64 µg/mL
same,Photo Toxicity UV Tox50,[4],>132.37 µM
same,Photo Toxicity Dark Tox50,[4],>132.37 µM
"CN(C)CCNC(=O)c1cccc(-c2cc(N(C)C)c3c(c2O)C(=O)C2=C(O)[C@]4(O)C(=O)C(C(N)=O)=C(O)[C@@H](N(C)C)[C@@H]4C[C@@H]2C3)c1 [V, (4S,4aS,5aR,12aS)-4,7-Bis-dimethylamino-9-[3-(2-dimethylamino-ethylcarbamoyl)-phenyl]-3,10,12,12a-tetrahydroxy-1,11-dioxo-1,4,4a,5,5a,6,11,12a-octahydro-naphthacene-2-carboxylic acid amide]",IC50 at 24 h,[5],> 125 µM
same,MIC,[2]; [7],64 µg/mL
same,MIC,[2]; [8],16 µg/mL
same,MIC,[2]; [9],32 µg/mL
same,IC50 at 24 h,[6],> 125 µM
same,MIC,[3]; [10],64 µg/mL
same,MIC,[3]; [11],64 µg/mL
same,MIC,[3]; [12],64 µg/mL
same,MIC,[3]; [13],64 µg/mL
same,Photo Toxicity UV Tox50,[4],>125.47 µM
same,Photo Toxicity Dark Tox50,[4],>125.47 µM
CN(C)[C@@H]1C(O)=C(C(N)=O)C(=O)[C@@]2(O)C(O)=C3C(=O)c4c(O)ccc(-c5cccc(C(=O)NCc6ccco6)c5)c4C[C@H]3C[C@@H]12 [Y],IC50 at 24 h,[5],> 14.6 µM
same,MIC,[2]; [7],1 µg/mL
same,MIC,[2]; [8],0.06 µg/mL
same,MIC,[2]; [9],0.06 µg/mL
same,IC50 at 24 h,[6],> 14.6 µM
same,MIC,[3]; [10],64 µg/mL
same,MIC,[3]; [11],64 µg/mL
same,MIC,[3]; [12],64 µg/mL
same,MIC,[3]; [13],64 µg/mL
same,Photo Toxicity UV Tox50,[4],>146.13 µM
same,Photo Toxicity Dark Tox50,[4],>146.13 µM
"CN(C)CCNC(=O)c1cccc(-c2ccc(O)c3c2C[C@H]2C[C@H]4CC(O)=C(C(N)=O)C(=O)[C@@]4(O)C(O)=C2C3=O)c1 [Z, (4aS,5aR,12aS)-7-[3-(2-Dimethylamino-ethylcarbamoyl)-phenyl]-3,10,12,12a-tetrahydroxy-1,11-dioxo-1,4,4a,5,5a,6,11,12a-octahydro-naphthacene-2-carboxylic acid amide]",IC50 at 24 h,[5],> 15.9 µM
same,MIC,[2]; [7],64 µg/mL
same,MIC,[2]; [8],64 µg/mL
same,MIC,[2]; [9],64 µg/mL
same,IC50 at 24 h,[6],> 15.9 µM
same,MIC,[3]; [10],64 µg/mL
same,MIC,[3]; [11],64 µg/mL
same,MIC,[3]; [12],64 µg/mL
same,MIC,[3]; [13],64 µg/mL
same,Photo Toxicity UV Tox50,[4],>158.85 µM
same,Photo Toxicity Dark Tox50,[4],>158.85 µM
